The values that follow come from patent publication US7989203B2, “Methods for use of apoptotic cells to deliver antigen to dendritic cells for induction or tolerization of T cells” (The Rockefeller University, priority 1998, dated 2011).

Assay [1] relates to immature DCs. Type of assay: cell-based, human. Particulars: for Percent Inhibition of phagocytosis of apoptotic cells: immature DC/apoptotic cell coculture, averages of 2-4 experiments.
Assay [2] has as its target protein kinase C. Particulars: footnote to Table II; cited from earlier work.
Assay [3] concerns DCs. Type of assay: cell-based, human.
Assay [4] concerns DCs. Put plainly: Y-Ae epitope (I-Ab/I-E peptide complex) formation on DCs cultured with B blasts (FACS). It counts as cell-based, mouse. Particulars: DCs cultured 20 h with B blasts. Here is the method:
[FIG. 11B]: Y-Ae epitope formation is blocked by NH4Cl. DCs were cultured 20 h with B blasts with or without NH4Cl at 5-20 mM. The cultures were stained for Y-Ae and CD86.
Antibodies. The Y-Ae hybridoma was generously provided by Dr. C. Janeway, Yale University, New Haven Conn. and grown serum-free. The IgG2b antibody was purified on protein A sepharose, biotinylated, and used in the FACS along with PE-streptavidin to detect MHC class II-peptide complexes (75,76) with a mouse IgG2b anti-human TCR antibody as the non-reactive control [PharMingen, San Diego Calif.]. The cells were double labeled for FACS and for microscopy with FITC antibodies to CD8, CD11c, CD86, I-Ab [AF6-120.1], 1-Ad, and I-E [14-4-4S][PharMingen].
Capture of cell-derived peptides in vitro. Bone marrow DCs were generated in 24 well plates for 6 days in GM-CSF, gently washed to remove mature floating DCs, and then fed B blasts, human cells, or a peptide [residues 56-73 of 1-Eα]. Before adding I-E^+ cells or peptide, the DCs were immature, since much of the MHC class II was in intracellular lysosomal compartments and CD86 was not expressed at the surface (84) After uptake of I-E, the DCs matured with high levels of surface MHC II and CD86.

Assay [5] addresses phospholipase D. Conditions: footnote to Table II; cited from earlier work.
The test system of assay [6] is influenza-infected monocytes. Type of assay: cell-based, human. Conditions: concentrations which inhibited apoptosis of the infected monocytes; 7 days.
In assay [7] the test system is influenza-infected monocytes. It counts as cell-based, human. Conditions: determined by TUNEL; without affecting expression of viral proteins.

“Also recorded” adds a separate entry of the source. Read-outs that look alike come from different tables or passages of the source. *: point of attachment. Cbz = O=C(OCc1ccccc1)*

Take `COc1ccc2c(c[n+](C)c3c4cc5c(cc4ccc23)OCO5)c1OC.[Cl-]` [CC, Chelethrine chloride]: the “Percent Inhibition of phagocytosis of apoptotic cells” value (from here on “Percent Inhibition”) in assay [1] (12 μM) was 4%. Besides, in assay [2], the IC50 (in general, the concentration that gives 50% inhibition) was 0.66 µM.
On to `Cl.N` [NH4Cl, ammonium chloride], for which the “DCs ability to present antigenic material on MHC class I” value in assay [3] is “completely inhibited”. In addition, the figures for the “Y-Ae development (epitope formation)” value in assay [4] (5 mM) and in assay [4] (20 mM) were “partially” and “totally blocked; also recorded: completely blocked”, respectively.
`C[C@H]1CCC/C=C/[C@@H]2C[C@H](O)C[C@H]2[C@H](O)/C=C/C(=O)O1` [BFA, Brefeldin A]: the “DCs ability to present antigenic material on MHC class I” value in assay [3] (DCs preincubated with 6 ug/ml) is “completely inhibited”.
Take Herbamycin A: the results for the “Percent Inhibition” value in assay [1] (1.8 μM), in assay [1] (9 μM) and in assay [1] (18 μM) were 6.5%, 49% and 66.5%, respectively. For the same molecule, in assay [5], the “IC50, PDGF-induced phospholipase D activation” value is “^§Herbamycin A is a potent cell-permeable protein tyrosine kinase inhibitor and inhibits PDGF-induced phospholipase D activation (IC50 = 8 μg/ml) in a dose dependant manner”.
For the molecule `CC(=O)N[C@@H](CSC(=O)[C@]1([C@@H](O)C(C)C)NC(=O)[C@H](C)[C@@H]1O)C(=O)O` [Lactacystin], the “antigen presentation by the uninfected DCs” value in assay [3] (unpublished data, concentration not given) is reported as “only partially blocked”.
As for `O=C(O)CN(CCN(CC(=O)O)CC(=O)O)CC(=O)O` [EDTA], the “inhibition of phagocytosis of apoptotic cells by immature DCs (in words)” value (“inhibition of phagocytosis … (in words)” for short) in assay [1] was “inhibitory”.
For the molecule Cbz-Val-Ala-Asp-aldehyde, in assay [6], the “generation of virus-specific CTLs after transfer of medium from treated infected monocytes to T cells and uninfected DCs” value is listed as “virus-specific CTLs were not generated”. In assay [7], the “apoptosis of influenza-infected monocytes” value was “block apoptosis”.
As to `O=C(O)c1cc(N(Cc2ccccc2O)Cc2ccccc2O)ccc1O` [LB, Lavendustin B], the “Percent Inhibition” value in assay [1] (10 μM) and in assay [1] (40 μM) was 0% throughout.
For the molecule `C=C1[C@@H](C)[C@H]2[C@H](Cc3ccccc3)NC(=O)[C@]23[C@H](OC(C)=O)/C=C/[C@@](C)(O)C(=O)[C@@H](C)C/C=C/[C@H]3[C@@H]1O` [Cytochalasin D], in assay [1] (concentration not given), the “inhibition of phagocytosis … (in words)” value is listed as “blocked uptake”.
Regarding TSP: purified TSP (thrombospondin), in assay [1] (concentration not given), the “inhibition of phagocytosis … (in words)” value is “nor the addition of purified TSP to DC/apoptotic cell co-cultures has an inhibitory effect”.
In the case of `O=C(O)c1cc(N(Cc2ccccc2O)Cc2cc(O)ccc2O)ccc1O` [LA, Lavendustin A], the “Percent Inhibition” value in assay [1] (10 μM) is listed as 14%; in assay [1] (40 μM), 41.5%.
